Legend:
Conditions in all cases: Compound concentration 10.0 uM
[1] = biological target: Delta-type opioid receptor (Homo sapiens) (UniProt P41143); experiment: delta 2 (h) CEREP ligand profiling
[2] = biological target: Neuropeptide Y receptor type 2 (Homo sapiens) (UniProt P49146); experiment: Y2 (h) CEREP ligand profiling
[3] = biological target: T1, Muscarinic acetylcholine receptor M5 (Homo sapiens) (UniProt P08912); experiment: M5 (h) CEREP ligand profiling
T1 sequence (whole entry): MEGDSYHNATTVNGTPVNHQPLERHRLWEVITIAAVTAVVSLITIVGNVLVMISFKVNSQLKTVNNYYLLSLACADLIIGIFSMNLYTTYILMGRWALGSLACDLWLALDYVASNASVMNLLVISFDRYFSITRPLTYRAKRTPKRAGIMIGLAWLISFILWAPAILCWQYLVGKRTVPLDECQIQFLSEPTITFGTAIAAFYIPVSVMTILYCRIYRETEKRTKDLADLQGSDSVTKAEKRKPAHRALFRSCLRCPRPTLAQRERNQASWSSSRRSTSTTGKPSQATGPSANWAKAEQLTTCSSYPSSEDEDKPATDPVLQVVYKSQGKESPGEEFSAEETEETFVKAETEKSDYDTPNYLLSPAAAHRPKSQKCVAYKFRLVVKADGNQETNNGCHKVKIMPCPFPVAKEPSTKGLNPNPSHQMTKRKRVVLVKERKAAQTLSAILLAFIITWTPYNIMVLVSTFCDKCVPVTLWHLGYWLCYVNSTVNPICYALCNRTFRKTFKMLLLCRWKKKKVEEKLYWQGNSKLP

[4] = biological target: Vasopressin V1a receptor (Homo sapiens) (UniProt P37288); experiment: V1a (h) CEREP ligand profiling
Sequence of Vasopressin V1a receptor (Homo sapiens) (P37288 whole entry, looked up): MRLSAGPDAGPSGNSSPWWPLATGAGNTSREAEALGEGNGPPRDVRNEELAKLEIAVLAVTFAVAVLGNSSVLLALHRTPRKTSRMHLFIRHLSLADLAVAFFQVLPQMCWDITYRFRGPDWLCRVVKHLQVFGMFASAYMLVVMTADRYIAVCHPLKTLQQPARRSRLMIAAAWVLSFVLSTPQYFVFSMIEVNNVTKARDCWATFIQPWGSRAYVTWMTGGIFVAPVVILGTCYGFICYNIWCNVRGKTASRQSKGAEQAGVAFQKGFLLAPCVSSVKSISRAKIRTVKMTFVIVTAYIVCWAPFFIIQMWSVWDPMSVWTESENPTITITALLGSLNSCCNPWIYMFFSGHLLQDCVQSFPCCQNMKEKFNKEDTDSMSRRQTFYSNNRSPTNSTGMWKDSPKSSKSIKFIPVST

[5] = biological target: Endothelin receptor type B (Homo sapiens) (UniProt P24530); experiment: ETB (h) CEREP ligand profiling
Sequence of Endothelin receptor type B (Homo sapiens) (P24530 whole entry): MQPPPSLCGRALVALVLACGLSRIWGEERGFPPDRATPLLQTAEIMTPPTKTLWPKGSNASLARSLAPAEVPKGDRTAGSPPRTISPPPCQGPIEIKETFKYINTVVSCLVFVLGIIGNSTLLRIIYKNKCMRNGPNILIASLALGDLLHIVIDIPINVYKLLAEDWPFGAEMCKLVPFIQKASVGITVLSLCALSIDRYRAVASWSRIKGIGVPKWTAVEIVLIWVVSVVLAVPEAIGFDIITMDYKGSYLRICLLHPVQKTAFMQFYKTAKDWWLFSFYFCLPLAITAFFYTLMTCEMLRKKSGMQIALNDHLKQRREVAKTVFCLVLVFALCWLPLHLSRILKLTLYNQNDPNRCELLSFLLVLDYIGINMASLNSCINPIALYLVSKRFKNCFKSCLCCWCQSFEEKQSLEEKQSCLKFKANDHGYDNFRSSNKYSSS

[6] = biological target: Vasoactive intestinal polypeptide receptor 1 (Homo sapiens) (UniProt P32241); experiment: VIP1 (h) CEREP ligand profiling
Sequence of Vasoactive intestinal polypeptide receptor 1 (Homo sapiens) (P32241 whole entry): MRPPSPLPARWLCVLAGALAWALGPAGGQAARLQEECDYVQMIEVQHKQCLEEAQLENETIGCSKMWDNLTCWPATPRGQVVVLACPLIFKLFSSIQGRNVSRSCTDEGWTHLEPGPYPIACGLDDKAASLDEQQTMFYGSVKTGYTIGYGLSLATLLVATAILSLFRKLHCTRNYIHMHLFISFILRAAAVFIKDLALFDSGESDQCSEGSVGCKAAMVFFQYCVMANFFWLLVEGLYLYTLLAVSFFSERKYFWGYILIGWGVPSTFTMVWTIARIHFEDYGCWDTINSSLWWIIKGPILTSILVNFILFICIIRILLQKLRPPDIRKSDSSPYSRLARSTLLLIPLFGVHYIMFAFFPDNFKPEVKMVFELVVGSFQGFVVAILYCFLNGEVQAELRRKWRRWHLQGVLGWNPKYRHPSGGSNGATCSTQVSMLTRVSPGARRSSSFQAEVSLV

Measured: inhibition

Sequence of Delta-type opioid receptor (Homo sapiens) (P41143 whole entry): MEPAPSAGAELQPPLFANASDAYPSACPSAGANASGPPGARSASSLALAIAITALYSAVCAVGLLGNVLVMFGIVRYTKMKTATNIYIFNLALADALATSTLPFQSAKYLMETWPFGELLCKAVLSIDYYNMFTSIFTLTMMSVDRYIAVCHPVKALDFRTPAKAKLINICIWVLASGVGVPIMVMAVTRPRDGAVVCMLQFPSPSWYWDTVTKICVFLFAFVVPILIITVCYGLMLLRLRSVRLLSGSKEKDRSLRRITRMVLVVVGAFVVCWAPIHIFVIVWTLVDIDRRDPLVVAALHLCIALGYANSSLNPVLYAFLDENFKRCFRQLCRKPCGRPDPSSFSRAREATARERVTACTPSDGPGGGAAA
Sequence of Neuropeptide Y receptor type 2 (Homo sapiens) (P49146 whole entry): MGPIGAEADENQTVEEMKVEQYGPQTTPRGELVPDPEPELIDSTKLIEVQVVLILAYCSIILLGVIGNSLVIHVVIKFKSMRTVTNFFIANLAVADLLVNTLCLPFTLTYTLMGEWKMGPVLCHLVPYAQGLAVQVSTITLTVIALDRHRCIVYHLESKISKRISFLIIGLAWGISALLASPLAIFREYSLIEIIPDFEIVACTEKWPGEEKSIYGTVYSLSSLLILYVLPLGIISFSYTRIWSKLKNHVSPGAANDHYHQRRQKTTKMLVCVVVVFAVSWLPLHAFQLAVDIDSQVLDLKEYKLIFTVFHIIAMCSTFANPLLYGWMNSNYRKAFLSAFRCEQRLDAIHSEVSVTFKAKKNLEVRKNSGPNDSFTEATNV

CCC(=N\O)/C(C)=C/c1ccc(F)cc1 [A-079]
inactive: [1] 11% | [2] 13% | [3] -4% | [4] -3% | [5] 5% | [6] 0%
